Results as given in article PMC7397262, “Design, Synthesis and Biological Evaluation of Novel Triazole N-acylhydrazone Hybrids for Alzheimer’s Disease” (Molecules, 2020).

How the values were obtained:
[1] = tested on: SH-SY5Y cells; assay: Toxicity in neuronal SH-SY5Y cells, MTT assay; format: cell-based; conditions: for IC50: Homo sapiens, read-out: IC50 (concentration resulting in 50% inhibition of neuronal viability), 24 h, 2.5-80 μM; for toxic effects: 24 h, at 80 μM
Description: […]. Human neuronal SH-SY5Y cells were routinely grown in Dulbecco’s modified Eagle’s Medium supplemented with 10% fetal bovine serum, 2 mM L-glutamine, 50 U/mL penicillin and 50 µg/mL streptomycin at 37 °C in a humidified incubator with 5 % CO2.
SH-SY5Y cells were seeded in a 96-well plate at 2 × 10^4 cells/well, incubated for 24 h and then treated with the compounds for 24 h. Cell viability, in terms of mitochondrial metabolic function, was evaluated by 3-(4,5-dimethylthiazol-2-yl)-2,5-diphenyltetrazolium bromide (MTT) test, as previously described.

[2] = tested on: SH-SY5Y cells; assay: Intracellular GSH levels in SH-SY5Y cells, MCB assay; format: cell-based, human; conditions: 24 h, 2.5–10 μM
Description: Among the endogenous antioxidants in the central nervous system, glutathione (GSH) plays an important role to maintain the redox balance by directly interacting with ROS formed during the physiological metabolic processes. […] We therefore evaluated the ability of compounds 3a, 3b and 3e to modulate the intracellular GSH levels in SH-SY5Y cells, after 24 h of treatment using the fluorescent probe monochlorobimane (MCB).
(§1) Human neuronal SH-SY5Y cells were routinely grown in Dulbecco’s modified Eagle’s Medium supplemented with 10% fetal bovine serum, 2 mM L-glutamine, 50 U/mL penicillin and 50 µg/mL streptomycin at 37 °C in a humidified incubator with 5 % CO2.
SH-SY5Y cells were seeded in a black 96-well plate at 2 × 10^4 cells/well, incubated for 24 h and then treated with the compounds for 24 h. GSH levels were evaluated by using monochlorobimane, as previously described

[3] = tested on: SH-SY5Y cells; assay: ROS formation induced by t-BOOH in SH-SY5Y cells, H2DCF-DA probe; format: cell-based, human; parameters: key to Direct Antioxidant Activity in SH-SY5Y Cells (percentage inhibition of ROS formation induced by t-BOOH): In: inactive; conditions: for inhibition at 10 µM: Homo sapiens, SH-SY5Y, chronic treatment 24 h with compound 10 μM, then t-BOOH 100 μM for 30 min, read-out: Indirect Antioxidant Activity in SH-SY5Y Cells (percentage inhibition of ROS formation induced by t-BOOH); for Direct Antioxidant Activity in SH-SY5Y Cells (percentage inhibition of ROS formation induced by t-BOOH): simultaneous treatment 30 min, compound 10 µM and t-BOOH 100 μM
Description: In parallel, we evaluated the antioxidant activity of the compounds not associated with toxicity (Figure 5) against the ROS formation induced by t-BOOH in SH-SY5Y cells. To appraise the direct and indirect antioxidant activity, the SH-SY5Y cells were simultaneously treated for 30 min with 3a, 3b and 3e (10 µM) and t-BOOH (100 µM) or chronically treated for 24 h (the time necessary to activate the endogenous antioxidant system) with 3a, 3b and 3e (10 µM) and then exposed to t-BOOH (100 µM) for 30 min, respectively. Then, the intracellular ROS formation was detected by using the fluorescent probe 2′,7′-dichlorodihydrofluorescein diacetate (H2DCF-DA).
as §1
SH-SY5Y cells were seeded in a 96-well plate at 2 × 10^4 cells/well, incubated for 24 h, and then treated with compounds for 24 h before or during the treatment of 30 min with t-BOOH. ROS formation was evaluated by using the fluorescent probe H2DCF-DA, as previously described.

[4] = biological target: T1, eqBuChE (Equus caballus, UniProt P81908); assay: BuChE inhibition, modified Ellman kinetic assay; format: biochemical
T1 construct: purified from equine serum; purchased Sigma-Aldrich; host or cells: equine serum (natural source)
T1 sequence (P81908 whole entry): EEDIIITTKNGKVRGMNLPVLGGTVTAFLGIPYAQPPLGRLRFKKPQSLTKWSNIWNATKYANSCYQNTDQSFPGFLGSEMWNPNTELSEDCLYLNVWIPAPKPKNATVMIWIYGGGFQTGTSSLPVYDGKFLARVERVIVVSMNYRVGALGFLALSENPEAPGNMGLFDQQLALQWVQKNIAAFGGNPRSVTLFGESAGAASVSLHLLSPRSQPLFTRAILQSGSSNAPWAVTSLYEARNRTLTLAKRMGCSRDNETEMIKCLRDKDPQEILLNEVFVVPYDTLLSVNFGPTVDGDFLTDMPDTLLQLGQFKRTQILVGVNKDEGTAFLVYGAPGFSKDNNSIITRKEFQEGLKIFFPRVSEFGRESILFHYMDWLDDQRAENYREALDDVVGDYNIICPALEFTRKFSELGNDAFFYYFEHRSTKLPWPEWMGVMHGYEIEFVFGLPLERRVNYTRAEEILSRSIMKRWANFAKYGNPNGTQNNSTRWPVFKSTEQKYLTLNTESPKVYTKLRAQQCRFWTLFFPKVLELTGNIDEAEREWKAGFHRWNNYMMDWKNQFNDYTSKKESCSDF
Description: (§2) For in vitro evaluation of inhibition of EeAChE (EC3.1.1.7, type V-S, purified from Electrophorus electricus) and eqBuChE (EC 3.1.1.8, purified from equine serum, both from Sigma-Aldrich), the kinetic assay was performed according to the Ellman method modified using 96-well plates as previously described. […]. Progression curves were acquired using the Softmax PRO 5.0 software (Molecular Devices) from which the maximum hydrolysis velocity was calculated and the analysis performed with the Prism 5 software (GraphPad Inc., La Jolla, CA, USA). […]. The solvent had no detectable effect at the highest concentration used (0.2% v/v).

[5] = biological target: T2, EeAChE (Electrophorus electricus, UniProt O42275); assay: AChE inhibition, modified Ellman kinetic assay; format: biochemical
T2 construct: purified from Electrophorus electricus; purchased Sigma-Aldrich type V-S; host or cells: Electrophorus electricus (natural source)
T2 sequence (O42275 24-633): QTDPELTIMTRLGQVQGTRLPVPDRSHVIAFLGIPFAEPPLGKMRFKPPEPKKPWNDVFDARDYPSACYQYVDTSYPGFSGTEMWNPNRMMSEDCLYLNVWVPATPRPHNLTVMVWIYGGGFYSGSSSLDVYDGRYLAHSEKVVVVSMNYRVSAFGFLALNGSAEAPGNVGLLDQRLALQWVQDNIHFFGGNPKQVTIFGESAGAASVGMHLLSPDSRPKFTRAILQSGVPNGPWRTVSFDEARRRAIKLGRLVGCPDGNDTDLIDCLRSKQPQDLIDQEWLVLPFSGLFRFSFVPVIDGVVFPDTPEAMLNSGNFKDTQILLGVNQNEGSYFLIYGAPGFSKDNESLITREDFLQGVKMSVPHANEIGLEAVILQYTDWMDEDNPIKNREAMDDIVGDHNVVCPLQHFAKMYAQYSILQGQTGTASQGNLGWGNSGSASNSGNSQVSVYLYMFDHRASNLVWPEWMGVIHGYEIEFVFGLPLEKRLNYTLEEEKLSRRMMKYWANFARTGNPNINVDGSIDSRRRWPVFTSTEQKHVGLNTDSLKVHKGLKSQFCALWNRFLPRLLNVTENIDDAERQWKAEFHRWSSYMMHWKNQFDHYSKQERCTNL
Description: as §2

[6] = tested on: SH-SY5Y cells; assay: Neuroprotective activity against Aβ42 oligomers in SH-SY5Y cells, MTT assay; format: cell-based, human; conditions: 3e 5 µM with OAβ42 10 µM, 4 h
Description: Given the best antioxidant profile of compound 3e we also evaluated its ability to protect the SH-SY5Y cells against the neurotoxicity elicited by Aβ42 peptide oligomers (OAβ42), soluble aggregates of Aβ peptides involved in the pathogenesis of AD.
as §1
Aβ42 peptide (AnaSpec, Fremont, CA, USA) was first dissolved in 1,1,1,3,3,3-hexafluoroisopropanol to 1 mg/mL, sonicated, incubated at room temperature for 24 h, and lyophilised to obtain an unaggregated Aβ42 peptide film that was solubilised with DMSO and stored at −20 °C until use. The aggregation of Aβ42 peptide into oligomers was performed as previously described. SH-SY5Y cells were seeded in a 96-well plate at 3 × 10^4 cells/well, incubated for 24 h, and treated with the compounds for 24 h. The cells were then treated for 4 h with 3e [5 μM] and OAβ1-42 [10 μM]. The neuroprotective activity, in terms of increase in intracellular MTT granules, was measured by MTT assay, as previously described.

COc1cc(/C=N/NC(=O)c2cn(Cc3ccc(O)c(OC)c3)nn2)cc(OC)c1 [3d, (E)-N’-(3,5-Dimethoxybenzylidene)-1-(4-hydroxy-3-methoxybenzyl)-1H-1,2,3-triazole-4-carbohydrazide]
IC50 [1]: 67.7 µM

COc1cc(Cn2cc(C(=O)N/N=C/c3ccc(F)cc3)nn2)ccc1O [3k, (E)-N’-(4-Fluorobenzylidene)-1-(4-hydroxy-3-methoxybenzyl)-1H-1,2,3-triazole-4-carbohydrazide]
IC50 [1]: 3.62 µM

COc1cc(Cn2cc(C(=O)N/N=C/c3ccc(O)cc3)nn2)ccc1O [3a, (E)-1-(4-Hydroxy-3-methoxybenzyl)-N’-(4-hydroxybenzylidene)-1H-1,2,3-triazole-4-carbohydrazide]
toxic effects [1]: did not show any toxic effects
IC50 [1]: > 80 µM
effect on intracellular GSH levels [2]: increased the GSH levels
inhibition at 10 µM [3]: 20.6%
Direct Antioxidant Activity in SH-SY5Y Cells (percentage inhibition of ROS formation induced by t-BOOH) [3]: In ^d

COc1cc(Cn2cc(C(=O)N/N=C/c3ccccc3F)nn2)ccc1O [3l, (E)-N’-(2-Fluorobenzylidene)-1-(4-hydroxy-3-methoxybenzyl)-1H-1,2,3-triazole-4-carbohydrazide]
IC50 [1]: 68.5 µM

COc1cc(Cn2cc(C(=O)N/N=C/c3ccc(N4CCCCC4)cc3)nn2)ccc1O [3g, (E)-1-(4-Hydroxy-3-methoxybenzyl)-N’-(4-(piperidin-1-yl)benzylidene)-1H-1,2,3-triazole-4-carbohydrazide]
IC50 [1]: 10.3 µM

COc1ccc(/C=N/NC(=O)c2cn(Cc3ccc(O)c(OC)c3)nn2)cc1 [3c, (E)-1-(4-Hydroxy-3-methoxybenzyl)-N’-(4-methoxybenzylidene)-1H-1,2,3-triazole-4-carbohydrazide]
IC50 [1]: 10.3 µM

COc1cc(/C=N/NC(=O)c2cn(Cc3ccc(O)c(OC)c3)nn2)ccc1O [3e, (E)-1-(4-Hydroxy-3-methoxybenzyl)-N’-(4-hydroxy-3-methoxybenzylidene)-1H-1,2,3-triazole-4-carbo-hydrazide]
ability to inhibit BuChE [4]: no relevant activity was detected
toxic effects [1]: did not show any toxic effects
IC50 [1]: > 80 µM
effect on intracellular GSH levels [2]: increased the GSH levels
IC50 [5]: 26.3 µM
inhibition at 30 µM ([5]; read-out: inhibition of the AChE activity at the screening concentration): > 50%
inhibition at 10 µM [3]: 35.2%
effect on loss of neuronal viability induced by OAβ42 [6]: significantly reduced the loss of neuronal viability

COc1cc(Cn2cc(C(=O)N/N=C/c3cccc(Cl)c3)nn2)ccc1O [3i, (E)-N’-(3-Chlorobenzylidene)-1-(4-hydroxy-3-methoxybenzyl)-1H-1,2,3-triazole-4-carbohydrazide]
IC50 [1]: 10.4 µM

COc1cc(Cn2cc(C(=O)N/N=C/c3cc(O)cc(O)c3)nn2)ccc1O [3b, (E)-N’-(3,5-Dihydroxybenzylidene)-1-(4-hydroxy-3-methoxybenzyl)-1H-1,2,3-triazole-4-carbohydrazide]
toxic effects [1]: did not show any toxic effects
IC50 [1]: > 80 µM
effect on intracellular GSH levels [2]: increased the GSH levels
inhibition at 10 µM [3]: 14.1%
Direct Antioxidant Activity in SH-SY5Y Cells (percentage inhibition of ROS formation induced by t-BOOH) [3]: In

COc1cc(Cn2cc(C(=O)N/N=C/c3ccccc3)nn2)ccc1O [3f, (E)-N’-Benzylidene-1-(4-hydroxy-3-methoxybenzyl)-1H-1,2,3-triazole-4-carbohydrazide]
IC50 [1]: 63.8 µM

COc1cc(Cn2cc(C(=O)N/N=C/c3cccc(F)c3)nn2)ccc1O [3m, (E)-N’-(3-Fluorobenzylidene)-1-(4-hydroxy-3-methoxybenzyl)-1H-1,2,3-triazole-4-carbohydrazide]
IC50 [1]: 42.9 µM

COc1cc(Cn2cc(C(=O)N/N=C/c3ccc(Cl)cc3)nn2)ccc1O [3h, (E)-N’-(4-Chlorobenzylidene)-1-(4-hydroxy-3-methoxybenzyl)-1H-1,2,3-triazole-4-carbohydrazide]
IC50 [1]: 3.02 µM

COc1cc(Cn2cc(C(=O)N/N=C/c3ccccc3Cl)nn2)ccc1O [3j, (E)-N’-(2-Chlorobenzylidene)-1-(4-hydroxy-3-methoxybenzyl)-1H-1,2,3-triazole-4-carbohydrazide]
IC50 [1]: 28.3 µM
